Assay results from publication PMC6014686, “Thienopyrimidinone Based Sirtuin-2 (SIRT2)-Selective Inhibitors Bind in the Ligand Induced Selectivity Pocket” (Journal of Medicinal Chemistry, 2017).
“Also recorded” adds a separate entry of the source. Read-outs that look alike come from different tables or passages of the source.

Assays:
SIRT2 [1] = target: T1, SIRT2 (Homo sapiens, UniProt Q8IXJ6); test: SIRT2 enzymatic assay with fluorogenic p53 peptide substrate RHKK(Ac)-AMC; format: biochemical; conditions: for increase in potency over 9a: SIRT2 IC50 ratio to 9a
T1 sequence (Q8IXJ6 1-389): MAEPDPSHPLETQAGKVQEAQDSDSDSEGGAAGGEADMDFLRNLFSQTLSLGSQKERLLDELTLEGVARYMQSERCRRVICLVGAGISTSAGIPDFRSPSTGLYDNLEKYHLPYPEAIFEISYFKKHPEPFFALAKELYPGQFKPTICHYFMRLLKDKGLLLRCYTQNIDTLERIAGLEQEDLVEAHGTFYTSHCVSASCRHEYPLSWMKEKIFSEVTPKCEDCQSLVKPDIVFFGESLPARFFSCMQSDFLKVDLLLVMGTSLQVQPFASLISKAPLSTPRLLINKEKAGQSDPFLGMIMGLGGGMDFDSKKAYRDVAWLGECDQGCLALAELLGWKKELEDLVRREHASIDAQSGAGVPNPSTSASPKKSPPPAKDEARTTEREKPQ
Description: The newly synthesized analogues, based on our previously validated thienopyrimidinone scaffold, were designed to contain a variety of N-3 (columns a–i, Table 1) and N-7′ substituents (rows 9–49, Table 1), with the aim to conduct a relatively broad survey of the SAR features of this scaffold. These compounds were all synthesized according to the previously disclosed method[81] (Schemes SS1 and SS2, Supporting Information) and assessed as racemates. SIRT2 inhibitory activity was assessed using a validated SIRT2 assay, based on a fluorogenic peptide substrate derived from p53 (see Experimental Section). For this assay, suramin was used as a positive control and gave similar inhibitory activity to that observed previously.[83] A vehicle (DMSO) was used as the negative control. SIRT2 inhibitory activity was measured at two compound concentrations, 1 μM (n = 2) and 10 μM (n = 2) for all compounds.
Enzymatic assays were performed by Reaction Biology Corporation (http://www.reactionbiology.com) as described before.[81] In vitro SIRT assays were conducted by using the fluorogenic peptide substrate from p53 residues 379–382 RHKK(Ac)-AMC for SIRT1–3. The assay buffer contained 50 mM Tris-HCl, pH 8.0, 137 mM NaCl, 2.7 mM KCl, 1 mM MgCl2, 1 mg mL^–1 bovine serum albumin, and 1% DMSO. The protocol involved a two-step procedure. The fluorogenic substrate with the acetylated lysine side chain was incubated with the SIRT enzyme to produce the deacetylated products, which were then digested in the second step by the addition of a developer to produce the fluorescent signal proportional to the amount of deacetylated substrates. Deacetylation of substrate peptides was used as a read out of the SIRT activity. All compounds were freshly prepared as 10 mM stock solutions in DMSO and serially diluted to the indicated concentration in the reaction. All test compounds were preincubated with the human SIRTs for about 10 min before commencing the reaction through the addition of substrate. Fluorescence was read (λex, 360 nm; λem, 460 nm) using an EnVision Multilabel Plate Reader (PerkinElmer). The percentages of enzyme activity (relative to DMSO controls) and IC50 values were calculated using the GraphPad Prism 4 program based on a sigmoidal dose–response equation. The number of replicates is stated in the corresponding text.

SIRT1 [2] = target: T2, SIRT1 (Homo sapiens, UniProt Q96EB6); test: SIRT1 enzymatic assay with fluorogenic p53 peptide substrate RHKK(Ac)-AMC; format: biochemical; conditions: Table 3
T2 sequence (Q96EB6 1-747): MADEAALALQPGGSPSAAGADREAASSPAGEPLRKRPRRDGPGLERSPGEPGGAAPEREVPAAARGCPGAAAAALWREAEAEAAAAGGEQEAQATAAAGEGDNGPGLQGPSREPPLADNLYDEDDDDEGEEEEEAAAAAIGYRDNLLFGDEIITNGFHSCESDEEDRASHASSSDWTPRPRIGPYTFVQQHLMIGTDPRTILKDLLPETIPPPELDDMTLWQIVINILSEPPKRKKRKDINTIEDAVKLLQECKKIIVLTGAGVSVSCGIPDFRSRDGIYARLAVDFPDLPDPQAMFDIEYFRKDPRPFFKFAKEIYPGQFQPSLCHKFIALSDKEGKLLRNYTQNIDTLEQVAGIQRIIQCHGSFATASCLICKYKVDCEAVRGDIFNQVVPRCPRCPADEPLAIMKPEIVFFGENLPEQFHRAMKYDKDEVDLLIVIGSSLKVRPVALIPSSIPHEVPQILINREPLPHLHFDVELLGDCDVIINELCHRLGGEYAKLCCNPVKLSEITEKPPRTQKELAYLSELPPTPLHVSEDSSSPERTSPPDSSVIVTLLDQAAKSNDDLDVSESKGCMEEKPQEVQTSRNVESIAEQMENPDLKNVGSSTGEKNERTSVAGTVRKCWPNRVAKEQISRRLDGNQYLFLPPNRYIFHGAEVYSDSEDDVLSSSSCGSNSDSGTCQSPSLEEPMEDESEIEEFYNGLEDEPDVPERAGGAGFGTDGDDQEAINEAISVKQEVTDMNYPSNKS

SIRT3 [3] = target: T3, SIRT3 (Homo sapiens, UniProt Q9NTG7); test: SIRT3 enzymatic assay with fluorogenic p53 peptide substrate RHKK(Ac)-AMC; format: biochemical; conditions: Table 3
T3 sequence (Q9NTG7 1-399): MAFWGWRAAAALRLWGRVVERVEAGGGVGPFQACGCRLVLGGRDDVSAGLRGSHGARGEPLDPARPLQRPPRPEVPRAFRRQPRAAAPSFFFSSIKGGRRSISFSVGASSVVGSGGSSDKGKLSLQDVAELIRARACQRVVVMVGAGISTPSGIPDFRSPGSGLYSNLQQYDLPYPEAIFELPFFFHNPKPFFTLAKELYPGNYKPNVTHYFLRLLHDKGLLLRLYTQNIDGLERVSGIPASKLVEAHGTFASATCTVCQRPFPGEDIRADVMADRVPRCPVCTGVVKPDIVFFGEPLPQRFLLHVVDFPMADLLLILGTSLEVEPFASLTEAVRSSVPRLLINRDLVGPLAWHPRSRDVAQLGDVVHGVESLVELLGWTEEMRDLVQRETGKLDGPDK

[4] = test system: acetylated (lysine-40) α-tubulin in MCF-7 cells; test: Tubulin acetylation assay, Western blot in MCF-7 cells with TSA; conditions: 0-50 μM for 24 h with 50 nM TSA, N = 3
SIRT1 [5] = conditions: Figure 1, cited from earlier work; for IC50: differing in vitro assays and conditions
SIRT2 [6] = test system: SIRT2; design: method as in PMID 15780941, PMID 26982234, PMID 25275824, PMID 11483616, PMID 16618762; conditions: Figure 1; differing in vitro assays and conditions; cited from earlier work
SIRT3 [7] = conditions: Figure 1, cited from earlier work
SIRT6 = test system: SIRT6; design: method as in PMID 25672491; conditions: Figure 1; cited from earlier work
[8] = supplement CSV, SIRT2, 10uM, read-out: Inhibition@10uM

6-(2-Aminoethyl)-3-((2-methoxynaphthalen-1-yl) methyl)-5-methylthieno [2,3-d] pyrimidin-4(3H)-one [56a]
SIRT2 inhibitory activity (in words) (SIRT2 [1]): inactive
SIRT2 percentage inhibition (at 10 μM) (SIRT2 [1]; Table 2 middle value, 10 μM compound): 25%
Inhibition@10uM (SIRT2 [1]; supplement CSV, SIRT2, 10uM): 24.87

COc1ccc(Cn2cnc3sc4c(c3c2=O)CCC(NCc2cccc(Cl)c2)C4)c2ccccc12 (stereo not shown) [12c]
inhibition at 10 µM (SIRT2 [1]; 10 μM compound, n = 2, read-out: SIRT2 percentage inhibition (at 10 μM)): -6.5%
inhibition at 10 µM (SIRT2 [1]; [8]): -6.5%

N#Cc1ccc(CNC2CCc3c(sc4ncn(Cc5cccc6cccnc56)c(=O)c34)C2)cc1 (stereo not shown) [15e, 4-(((4-Oxo-3-(quinolin-8-ylmethyl)-3,4,5,6,7,8-hexahydrobenzo[4,5]thieno[2,3-d]pyrimidin-7-yl)amino)methyl)benzonitrile]
SIRT2 selectivity over SIRT1 (SIRT1 [2]): more than 100 fold
SIRT2 selectivity over SIRT3 (SIRT3 [3]): more than 100 fold
SIRT2/SIRT3 selectivity (SIRT3 [3]; ratio of IC50 values): >256

COc1ccccc1CNC1CCc2c(sc3ncn(Cc4c(OC)ccc5ccccc45)c(=O)c23)C1 (stereo not shown) [16a]
increase in potency over 9a (SIRT2 [1]): 9 fold

COc1ccc(CNC2CCc3c(sc4ncn(Cc5c(OC)ccc6ccccc56)c(=O)c34)C2)cc1 (stereo not shown) [18a]
increase in potency over 9a (SIRT2 [1]): 32 fold

O=c1c2c3c(sc2ncn1Cc1ccccc1)CC(NCc1ccncc1)CC3 (stereo not shown) [20g]
inhibition at 10 µM (SIRT2 [1]; [8]): 32.6%

COc1cccc(Cn2cnc3sc4c(c3c2=O)CCC(NCc2ccncc2)C4)c1 (stereo not shown) [20h]
inhibition at 10 µM (SIRT2 [1]; [8]): 57.6%

COc1cccc(Cn2cnc3sc4c(c3c2=O)CCC(NCc2ccccn2)C4)c1 (stereo not shown) [21h]
inhibition at 10 µM (SIRT2 [1]; [8]): 18.2%

O=c1c2c3c(sc2ncn1Cc1ccccc1)CC(NCc1cncnc1)CC3 (stereo not shown) [22g]
inhibition at 10 µM (SIRT2 [1]; [8]): 17.5%

COc1cccc(Cn2cnc3sc4c(c3c2=O)CCC(NCc2cncnc2)C4)c1 (stereo not shown) [22h]
inhibition at 10 µM (SIRT2 [1]; [8]): 18.3%

COc1ccc(CNC2CCc3c(sc4ncn(Cc5c(OC)ccc6ccccc56)c(=O)c34)C2)cn1 (stereo not shown) [23a]
inhibition at 10 µM (SIRT2 [1]; [8]): 87.9%

O=c1c2c3c(sc2ncn1Cc1ccccc1)CC(NCC1CCCO1)CC3 (stereo not shown) [25g]
SIRT2 inhibitory activity (in words) (SIRT2 [1]): lacking in vitro activity against SIRT2
effect on α-tubulin acetylation level [4]: no effect on tubulin acetylation levels; also recorded: showed no effect on the acetylation of α-tubulin

COc1cccc(Cn2cnc3sc4c(c3c2=O)CCC(NCC2CCCO2)C4)c1 (stereo not shown) [25h]
inhibition at 10 µM (SIRT2 [1]; [8]): 3.44%

COc1cccc(Cn2cnc3sc4c(c3c2=O)CCC(NCc2c(C)nn(C)c2C)C4)c1 (stereo not shown) [27h]
inhibition at 10 µM (SIRT2 [1]; [8]): 14.4%

COc1cccc(Cn2cnc3sc4c(c3c2=O)CCC(NCc2ccco2)C4)c1 (stereo not shown) [28h]
inhibition at 10 µM (SIRT2 [1]; [8]): 33.4%

COc1ccc(Cn2cnc3sc4c(c3c2=O)CCC(NCc2c(C)noc2C)C4)c2ccccc12 (stereo not shown) [29c]
SIRT2 selectivity over SIRT1 (SIRT1 [2]): > 200 fold
SIRT2 selectivity over SIRT3 (SIRT3 [3]): ~30 fold
effect on α-tubulin acetylation level [4]: increased levels of α-tubulin acetylation in a dose dependent manner; also recorded: increased the α-tubulin acetylation level at 10 μM and retained consistent to 50 μM

O=c1c2c3c(sc2ncn1Cc1ccccc1)CC(NCCc1cccnc1)CC3 (stereo not shown) [31g]
inhibition at 10 µM (SIRT2 [1]; [8]): 26.7%

COc1cccc(Cn2cnc3sc4c(c3c2=O)CCC(NCCc2cccnc2)C4)c1 (stereo not shown) [31h]
inhibition at 10 µM (SIRT2 [1]; [8]): 40.5%

COc1ccccc1NC1CCc2c(sc3ncn(Cc4cccc5ccccc45)c(=O)c23)C1 (stereo not shown) [35b]
inhibition at 10 µM (SIRT2 [1]; [8]): 22.3%

COc1ccccc1NC1CCc2c(sc3ncn(Cc4cccc(-c5ccccc5)c4)c(=O)c23)C1 (stereo not shown) [35i]
inhibition at 10 µM (SIRT2 [1]; [8]): 26.4%

COc1cccc(NC2CCc3c(sc4ncn(Cc5cccc(-c6ccccc6)c5)c(=O)c34)C2)c1 (stereo not shown) [37i]
inhibition at 10 µM (SIRT2 [1]; [8]): 29.6%

O=c1c2c3c(sc2ncn1Cc1cccc2cccnc12)CC(NC1CCCC1)CC3 (stereo not shown) [41e]
inhibition at 10 µM (SIRT2 [1]; [8]): 30.5%

O=c1c2c3c(sc2ncn1Cc1cccc(-c2ccccc2)c1)CC(NC1CCCc2ccccc21)CC3 (stereo not shown) [46i]
inhibition at 10 µM (SIRT2 [1]; [8]): 21.6%

COc1ccc2ccccc2c1Cn1cnc2sc(CCN(C)C)c(C)c2c1=O [57a]
SIRT2 inhibitory activity (in words) (SIRT2 [1]): inactive

N#C/C(=C\c1ccc(-c2cc(Cl)ccc2Cl)o1)C(=O)Nc1cccc2ncccc12 [AGK2]
IC50 (SIRT1 [5]): > 50 µM
effect on α-tubulin acetylation level [4]: showed significant increase of α-tubulin acetylation at 10 to 50 μM

O=c1[nH]c(=S)[nH]c(-c2ccccc2)c1Cc1c(O)ccc2ccccc12 [Cambinol, cambinol]
IC50 (SIRT1 [5]): 56 µM
IC50 (SIRT2 [6]): 51 µM

NC(=O)c1cccnc1 [Nicotinamide, nicotinamide]
IC50 (SIRT1 [5]): 85 µM

O=C(Nc1cnccc1Br)c1cccc(-c2ccc3ccccc3c2)c1 [compound 4]
IC50 (SIRT1 [5]): > 100 µM
IC50 (SIRT3 [7]; differing in vitro assays): > 100 µM
IC50 (SIRT2 [6]): 0.6 µM

CSc1ccc(CSc2cccc(C(=O)Nc3ccc(C#N)cc3)c2)cc1 [compound 5]
SIRT1 inhibition @ 10 μM (SIRT1 [5]; 10 μM): 3%
SIRT3 inhibition @ 10 μM (SIRT3 [7]; 10 μM): no inhibition
IC50 (SIRT2 [6]): 2.4 µM

CC1(C)Cc2c(-c3ccc(Cl)cc3)n[nH]c2C(C(N)=O)C1 (stereo not shown) [compound 7]
IC50 (SIRT1 [5]): 0.8 µM
IC50 (SIRT2 [6]): 1.7 µM

Cc1cc(C)nc(SCC(=O)Nc2ncc(Cc3cccc4ccccc34)s2)n1 [compound 8, SirReal2]
IC50 (SIRT1 [5]): > 100 µM
IC50 (SIRT6): > 200 µM
